Laboratory results from publication PMC11091889, “Silver Organometallics that are Highly Potent Thioredoxin and Glutathione Reductase Inhibitors: Exploring the Correlations of Solution Chemistry with the Strong Antibacterial Effects” (ACS Infectious Diseases, 2024).

Tests used:
[1] = Conductometry: molar conductivity of silver complexes in DMSO; assay type: physicochemical; details: 1.0 mM in DMSO, calculated as monocarbene (NHC)AgX
In short: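 Molar conductivity of each silver complex was measured at 1.0 mM in freshly distilled DMSO (specific conductivity ≤3 × 10^–8 S cm^–1) using an Apera Instruments EC9500 conductivity meter at 25 ± 2 °C. AgNO3 served as the 1:1 electrolyte reference, and readings were taken after dissolution to distinguish neutral monocarbene from ionic biscarbene forms.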

[2] = tested on: A. baumannii (DSM 30007, ATCC 19606); test: Broth microdilution antibacterial assay; assay type: cell-based, Acinetobacter baumannii; details: n = 3, MHB; for MIC A. baumannii / EC50: mean ± standard error; for MIC A. baumannii / MIC A. baumannii (value in brackets): 22 h; for EC50: read-out: EC50 A. baumannii
In short: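 Broth microdilution used 2–8 × 10^5 CFU/mL inocula, with compounds serially diluted 64 to 1 μg/mL and incubated 22 h at 37 °C, read at 600 nm. A. baumannii, K. pneumoniae and P. aeruginosa were grown in MHB pH 7.4; E. faecium was grown in TSY pH 7.0–7.2. MIC and EC50 were obtained by curve fitting from three independent experiments.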

[3] = tested on: E. coli (DSM1116, ATCC 9637); test: microbe, parasite or virus in culture; assay type: cell-based, Escherichia coli; details: for MIC E. coli DSM 1116 in MHB + tryptone: Müller-Hinton Broth with tryptone (17 g/L); for MIC E. coli DSM 1116 in MHB + tryptone / MIC E. coli DSM 1116 in MHB + yeast extract / MIC E. coli DSM 1116 in MHB: ± SE; for MIC E. coli DSM 1116 in MHB + yeast extract: Müller-Hinton Broth with yeast extract (3 g/L); for MIC E. coli DSM 1116 in MHB: Müller-Hinton Broth without additive; for EC50 / MIC E. coli: mean ± standard error; for EC50 / MIC E. coli / MIC E. coli (value in brackets): n = 3, MHB; for MIC E. coli / MIC E. coli (value in brackets): 22 h
In short: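 Escherichia coli DSM1116 (ATCC 9637) was tested by broth microdilution in 96-well plates in duplicate, with compounds serially diluted from 64 to 1 μg/mL. Inocula of 2–8 × 10^5 CFU/mL were used in MHB (21 g/L Müller Hinton broth, pH 7.4), either alone or supplemented with tryptone (17 g/L) or yeast extract (3 g/L). After 22 h at 37 °C, absorbance at 600 nm was read. MIC and EC50 were obtained by curve fitting in Sigma Plot from three independent experiments, and ciprofloxacin served as the positive control.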

[4] = tested on: S. aureus MRSA (DSM 11822, ICB 25701); test: microbe, parasite or virus in culture; assay type: cell-based, methicillin resistant S. aureus; details: n = 3, TSY; for MIC MRSA / EC50: mean ± standard error; for MIC MRSA / MIC MRSA (value in brackets): 22 h; for EC50: read-out: EC50 MRSA
In short: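 Broth microdilution in TSY (30 g/L trypticase soy broth, 3 g/L yeast extract, pH 7.0–7.2), inoculum 2–8 × 10^5 CFU/mL, compounds serially diluted 64 to 1 μg/mL, 22 h at 37 °C. Growth read as absorbance at 600 nm; MIC and EC50 obtained by curve fitting, three independent experiments.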

[5] = target: E. coli thioredoxin reductase (TrxR) (Escherichia coli, UniProt P0A9P4); details: read-out: IC50 TrxR from E. coli; ± standard deviation, n = 3, 75 min preincubation
Description: The inhibition of purified E. coli thioredoxin reductase (TrxR) and glutathione reductase (GR) from both E. coli and baker’s yeast was determined according to a previously applied procedure.[59],[60]
The TrxR (E. coli) and GR (baker’s yeast and E. coli) inhibition assays were performed according to previously published procedures.[62],[75] The assays are partly based on the procedure developed by Lu et al.[60] and make use of the reduction of 5,5′-dithiobis(2-nitrobenzoic acid) (DTNB). Solutions of E. coli TrxR (35.4 U/mL) and E. coli thioredoxin (Trx) (156 μg/mL) (both purchased from Sigma-Aldrich) or baker’s yeast GR (0,08 U/mL, Sigma-Aldrich) or E. coli GR (4.2 U/ml, Antibodies online) and GSSG (0.28 mM, Sigma-Aldrich) in distilled water were prepared, as were fresh 2 mM stock solutions of the test compounds in DMSO. Then, solutions with several concentrations of the test compounds in DMSO were prepared, and 35 μL of each solution was diluted with 965 μL of TE buffer (Tris–HCl 50 mM, EDTA 1 mM, pH 7.5). These solutions (20 μL) or TE buffer without the test compounds (20 μL, as control) were mixed with the TrxR or GR solutions (10 μL), the Trx or GSSG solutions (10 μL), and a solution of NADPH (200 μM) in TE buffer (100 μL) in a well on a 96-well plate. As a blank solution, 200 μM NADPH in TE buffer (100 μL) mixed with a DMSO/buffer mixture (40 μL) was used (final concentrations of DMSO: 0.5% v/v). The plate was incubated for 75 min at 25 °C with moderate shaking. After incubation, 100 μL of a reaction mixture (TE buffer containing 200 μM NADPH and 5 mM DTNB) was added to each well to initiate the reaction. After thorough mixing, the formation of 5-TNB was monitored by a microplate reader at 405 nm in 35 s intervals (10 measurements). The values were corrected by subtraction of the blank solution absorption values. The increase in the concentration of 5-TNB followed a linear trend (r^2 ≥ 0.990), and the enzymatic activities were calculated as the gradients (increase in absorbance per second) thereof. […] The inhibition is presented as the mean IC50 values and standard deviations obtained in three independent experiments.

[6] = tested on: P. aeruginosa (PA 14) biofilm; test: Inhibition of biofilm formation, crystal violet staining; assay type: cell-based, Pseudomonas aeruginosa; details: for smallest active concentration for biofilm inhibition: concentration at which the % inhibition was found; for biofilm inhibition: ± SD, n = 4, at the respective smallest active concentration, 24 h
Excerpt: Silver and its complexes can strongly affect the growth of biofilms.[56]−[58] In view of the promising activity against Gram-negative bacteria as mentioned above, we evaluated the inhibiting effect of the silver complexes on biofilm production by P. aeruginosa by a method based on crystal violet staining (Table 4 and Figure S14). Complexes 3a–c and 4a–c were selected for the test based on the results of solubility, stability, and antibacterial screening. […] The lower activity of 3c might be explained by its lower kinetic solubility in the aqueous environment (see Figure 4).
The antibiofilm activity was determined according to a literature method.[73] A 1 mL aliquot of P. aeruginosa (PA 14) was taken from −20 °C stock, incubated in 25 mL LB medium (Luria–Bertani Broth) in a 250 mL flask, and kept at 37 °C at 100 rpm overnight. The optical density at 600 nm (OD600) of the culture solution was adjusted to match the turbidity of a 0.1 McFarland standard in M63 medium.[74] Selected compounds were mixed with 150 μL of bacterial solution in U-bottom 96 well plates to the final respective concentrations (25–0.2 μg/mL). The plates were further incubated at 37 °C for 24 h while shaking at 150 rpm. Afterward, the plates were rinsed once with 150 μL of PBS buffer, and the biofilms were stained using 150 μL of crystal violet (0.1%) staining at room temperature for 15 min and then rinsed once with PBS buffer. After rinsing, 150 μL of ethanol (95%) was added, and the absorbance was quantified using a plate reader (Synergy 2, BioTek, Santa Clara, USA) at 550 nm. The resulting antibiofilm activity is presented as percentage of inhibition at the respective smallest active concentration in μM with standard deviation (SD) of two repeats with duplicates. Myxovalargin A and DMSO (2.5%) were used as the positive and negative controls, respectively.

E. coli thioredoxin reductase (TrxR), sequence (P0A9P4 whole entry): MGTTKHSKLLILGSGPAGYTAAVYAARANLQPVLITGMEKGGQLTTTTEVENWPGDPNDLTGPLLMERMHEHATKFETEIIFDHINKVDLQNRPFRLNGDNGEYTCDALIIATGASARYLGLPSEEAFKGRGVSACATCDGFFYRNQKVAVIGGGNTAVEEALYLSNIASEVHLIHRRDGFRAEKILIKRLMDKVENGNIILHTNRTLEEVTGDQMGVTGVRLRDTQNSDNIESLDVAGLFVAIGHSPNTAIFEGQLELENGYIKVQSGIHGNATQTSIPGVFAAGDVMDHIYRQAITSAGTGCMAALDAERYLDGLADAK

| Compound | Molar conductivity ΛM ([1]; 1 h after dissolution) [S cm^2 mol^–^1] | Molar conductivity ΛM ([1]; 24 h after dissolution) [S cm^2 mol^–^1] | MIC A. baumannii [2] [µM] | EC50 [2] [µM] | MIC A. baumannii (value in brackets) [2] [µg/mL] | MIC E. coli DSM 1116 in MHB + tryptone [3] [µM] | MIC E. coli DSM 1116 in MHB + yeast extract [3] [µM] | MIC E. coli DSM 1116 in MHB [3] [µM] | EC50 [3] [µM] | MIC E. coli [3] [µM] | MIC E. coli (value in brackets) [3] [µg/mL] | MIC MRSA [4] [µM] | EC50 [4] [µM] | MIC MRSA (value in brackets) [4] [µg/mL] | IC50 [5] [µM] | smallest active concentration for biofilm inhibition [6] [µM] | biofilm inhibition [6] [%] |
| --- | --- | --- | --- | --- | --- | --- | --- | --- | --- | --- | --- | --- | --- | --- | --- | --- | --- |
| CC(C)n1[c](=[Ag][Br])n(Cc2ccccn2)c2ccccc21 [3b, Bromido (1-Isopropyl-3-(pyridin-2-ylmethyl)-benzimidazol-2-ylidene) Silver(I)] | 5.25 | 4.71 | 15.2 ± 3.0 | 0.53 ± 0.14 | 7 | 145.7 ± 0.0 | 121.5 ± 24.3 | 36.4 ± 0.0 | 28.7 ± 3.6 | 36.4 ± 0.0 | 16 | 146 ± 0.0 | 78.8 ± 0.4 | 64 | 0.092 ± 0.008 | 7.1 | 74 ± 5 |
| COCCn1[c](=[Ag][I])n(Cc2ccccn2)c2ccccc21 [4c, Iodido (1-(2-Methoxyethyl)-3-(pyridin-2-ylmethyl)-benzimidazol-2-ylidene) Silver(I)] | 7.18 | 8.83 | 9.3 ± 3.5 | 1.9 ± 0.1 | 5 | – | – | – | 14.4 ± 2.7 | 21.2 ± 5.3 | 11 | > 128 | > 128 | > 64 | – | 6.2 | 66 ± 6 |
| CC(C)n1[c](=[Ag][I])n(Cc2ccccn2)c2ccccc21 [3c, Iodido (1-Isopropyl-3-(pyridin-2-ylmethyl)-benzimidazol-2-ylidene) Silver(I)] | 8.15 | 7.62 | 4.11 ± 0.0 | 1.9 ± 0.1 | 2 | 54.9 ± 11.0 | 43.9 ± 11.0 | 11.0 ± 2.7 | 8.8 ± 2.5 | 11.0 ± 2.7 | 5 | > 132 | > 132 | > 64 | 0.122 ± 0.015 | 13.0 | 55 ± 19 |
| CC(C)n1[c](=[Ag][Cl])n(Cc2ccccn2)c2ccccc21 [3a, Chlorido (1-Isopropyl-3-(pyridin-2-ylmethyl)-benzimidazol-2-ylidene) Silver(I)] | 3.34 | 2.91 | 13.5 ± 3.4 | 1.8 ± 0.3 | 5 | 162.2 ± 0.0 | 162.2 ± 0.0 | 40.5 ± 0.0 | 35.3 ± 1.1 | 40.5 ± 0.0 | 16 | 162 ± 0.0 | 88.6 ± 1.6 | 64 | 0.103 ± 0.008 | 7.9 | 71 ± 4 |
